Assay results published in patent US20260144875A1, “COMPOSITIONS AND METHODS FOR CROSSLINKING STRUCTURAL PROTEINS” (ADS Therapeutics LLC, priority 2022, published 2026).
≈ marks a conversion by molar mass, not a printed value.

What was measured:
Assay type in all cases: physicochemical
[1] = Saturated aqueous solubility of RTB in PBS with or without HP-β-CD, HPLC
Protocol: Solubility of riboflavin tetrabutyrate (RTB) was tested in PBS solution, with or without 10% hydroxypropyl-beta-cyclodextrin (HP-β-CD) as solubilizer, at varying pH. For each formulation, 5 mg of RTB was added to 5 mL of pH-adjusted PBS containing 10% HP-β-CD at 25° C., and mixed well. Solubility was analyzed as in Example 1a.

[2] = Solubility of RTB in MCT, F6H8 or mixed solvents, HPLC; settings: 25° C.
Protocol: Solubility of riboflavin tetrabutyrate (RTB) was tested in medium chain triglycerides (MCT), F6H8, or mixtures of MCT/F6H8 at room temperature, and in F6H8 at 100° C. Solubility was analyzed as in Example 1a.

[3] = Impurities from riboflavin tetrabutyrate in aqueous solution; settings: PBS
Protocol: The impurities present in PBS solutions, with or without 10% hydroxy-propyl-beta-cyclodextrin (HP-β-CD) as solubilizer, at varying pH, with riboflavin tetrabutyrate (RTB) was investigated. Using similar sample analysis methods described in Examples 1a-1c, the impurities were determined.

[4] = Impurities from riboflavin tetrabutyrate in organic solvents; settings: 25° C.; for Impur. 0 hr / Impur. 1 Month / Impur. 14 Days: RTB
Protocol: The impurities present in MCT, F6H8, or combinations, with riboflavin tetrabutyrate (RTB), at 25° C. was investigated. Using similar sample analysis methods described in Examples 1a-1c, the impurities were determined.

[5] = Stability of riboflavin tetrabutyrate in organic solvents; settings: RTB
Excerpt: The stability of riboflavin tetrabutyrate (RTB) in various solvents was investigated. Using similar sample analysis methods described in Examples 1a-1c, the stability of RTB in formulations of MCT, F6H8, and combinations were monitored at various temperatures.

[6] = Sample YA1, HP-β-CD 10%, pH 5.0
[7] = Sample YA2, HP-β-CD 10%, pH 6.0
[8] = Sample YA3, HP-β-CD 10%, pH 7.0
[9] = Sample YA4, without HP-β-CD, pH 5.0
[10] = Sample YA5, without HP-β-CD, pH 6.0
[11] = Sample YA6, without HP-β-CD, pH 7.0
[12] = Sample YB1, 0.2%, MCT 100%, F6H8 0%
[13] = Sample YB2, 0.1%, MCT 70%, F6H8 30%
[14] = Sample YB3, 0.1%, MCT 50%, F6H8 50%
[15] = Sample X1, 0.2%, MCT 100%, F6H8 0%, 2-8° C.
[16] = Sample X2, 0.2%, MCT 100%, F6H8 0%, 25° C.
[17] = Sample X3, 0.2%, MCT 100%, F6H8 0%, 40° C.
[18] = Sample X4, 0.1%, MCT 70%, F6H8 30%, 2-8° C.
[19] = Sample X5, 0.1%, MCT 70%, F6H8 30%, 25° C.
[20] = Sample X6, 0.1%, MCT 70%, F6H8 30%, 40° C.
[21] = Sample X7, 0.1%, MCT 50%, F6H8 50%, 2-8° C.
[22] = Sample X8, 0.1%, MCT 50%, F6H8 50%, 25° C.
[23] = Sample X9, 0.1%, MCT 50%, F6H8 50%, 40° C.

SMILES: CCCC(=O)OC[C@@H](OC(=O)CCC)[C@@H](OC(=O)CCC)[C@H](Cn1c2nc(=O)[nH]c(=O)c-2nc2cc(C)c(C)cc21)OC(=O)CCC [RTB, (2R,3S,4S)-5-(7,8-dimethyl-2,4-dioxo-3,4-dihydrobenzo[g]pteridin-10(2H)-yl) pentane-1,2,3,4-tetrayl tetrabutyrate]
- Solubility ([1]; Sample C1, 25° C., HP-β-CD 10%, pH 5.0): 8 ng/mL (≈ 0.0122 µM)
- Solubility ([1]; Sample C2, 25° C., HP-β-CD 10%, pH 5.5): 3 ng/mL (≈ 0.00457 µM)
- Solubility ([1]; Sample C3, 25° C., HP-β-CD 10%, pH 6.0): 4 ng/mL (≈ 0.00609 µM)
- Solubility ([1]; Sample C4, 25° C., without HP-β-CD, pH 5.0): 8 ng/mL (≈ 0.0122 µM)
- Solubility ([1]; Sample C5, 25° C., without HP-β-CD, pH 5.5): 1 ng/mL (≈ 0.00152 µM)
- Solubility ([1]; Sample C6, 25° C., without HP-β-CD, pH 6.0): 2 ng/mL (≈ 0.00305 µM)
- Solubility ([2]; Sample B2, MCT 100%, F6H8 0%): 3.133 µg/mL (≈ 4.77 µM)
- Solubility ([2]; Sample B3, MCT 20%, F6H8 80%): 0.316 µg/mL (≈ 0.481 µM)
- Solubility ([2]; Sample B4, MCT 50%, F6H8 50%): 1.124 µg/mL (≈ 1.71 µM)
- Solubility ([2]; Sample B5, MCT 70%, F6H8 30%): 1.582 µg/mL (≈ 2.41 µM)
- Other Impurities [3, 6]: 2.94%
- Riboflavin [3, 6]: 0%
- Riboflavin Tetrabutyrate [3, 6]: 96.28%
- Other Impurities [3, 7]: 10.65%
- Riboflavin [3, 7]: 2.45%
- Riboflavin Tetrabutyrate [3, 7]: 87.2%
- Other Impurities [3, 8]: 9.39%
- Riboflavin [3, 8]: 2.03%
- Riboflavin Tetrabutyrate [3, 8]: 88.58%
- Other Impurities [3, 9]: 22.54%
- Riboflavin [3, 9]: 7.24%
- Riboflavin Tetrabutyrate [3, 9]: 70.22%
- Other Impurities [3, 10]: 20.58%
- Riboflavin [3, 10]: 7.52%
- Riboflavin Tetrabutyrate [3, 10]: 71.90%
- Other Impurities [3, 11]: 19.8%
- Riboflavin [3, 11]: 8.92%
- Riboflavin Tetrabutyrate [3, 11]: 71.30%
- RTB 0 hr [4, 12]: 98.76%
- RTB 1 Month [4, 12]: 98.71%
- RTB 14 Days [4, 12]: 98.76%
- Impur. 0 hr [4, 12]: 1.16%
- Impur. 1 Month [4, 12]: 1.15%
- Impur. 14 Days [4, 12]: 1.16%
- RTB 0 hr [4, 13]: 98.85%
- RTB 1 Month [4, 13]: 99.05%
- RTB 14 Days [4, 13]: 98.94%
- Impur. 0 hr [4, 13]: 1.14%
- Impur. 1 Month [4, 13]: 0.95%
- Impur. 14 Days [4, 13]: 1.06%
- RTB 0 hr [4, 14]: 98.87%
- RTB 1 Month [4, 14]: 98.99%
- RTB 14 Days [4, 14]: 98.92%
- Impur. 0 hr [4, 14]: 1.13%
- Impur. 1 Month [4, 14]: 1.02%
- Impur. 14 Days [4, 14]: 1.07%
- Appearance (clear/precip.) 0 hr [5, 15]: clear
- Conc. 0 hr [5, 15]: 2.055, mg/mL
- Appearance (clear/precip.) 1 Month [5, 15]: clear
- Conc. 1 Month [5, 15]: 1.832, mg/mL
- Appearance (clear/precip.) 14 days [5, 15]: clear
- Conc. 14 days [5, 15]: 1.837, mg/mL
- Appearance (clear/precip.) 0 hr [5, 16]: clear
- Conc. 0 hr [5, 16]: 2.055, mg/mL
- Appearance (clear/precip.) 1 Month [5, 16]: clear
- Conc. 1 Month [5, 16]: 1.817, mg/mL
- Appearance (clear/precip.) 14 days [5, 16]: clear
- Conc. 14 days [5, 16]: 1.888, mg/mL
- Appearance (clear/precip.) 0 hr [5, 17]: clear
- Conc. 0 hr [5, 17]: 2.055, mg/mL
- Appearance (clear/precip.) 1 Month [5, 17]: clear
- Conc. 1 Month [5, 17]: 1.833, mg/mL
- Appearance (clear/precip.) 14 days [5, 17]: clear
- Conc. 14 days [5, 17]: 1.958, mg/mL
- Appearance (clear/precip.) 0 hr [5, 18]: clear
- Conc. 0 hr [5, 18]: 1.077, mg/mL
- Appearance (clear/precip.) 1 Month [5, 18]: clear
- Conc. 1 Month [5, 18]: 0.960, mg/mL
- Appearance (clear/precip.) 14 days [5, 18]: clear
- Conc. 14 days [5, 18]: 1.015, mg/mL
- Appearance (clear/precip.) 0 hr [5, 19]: clear
- Conc. 0 hr [5, 19]: 1.077, mg/mL
- Appearance (clear/precip.) 1 Month [5, 19]: clear
- Conc. 1 Month [5, 19]: 0.953, mg/mL
- Appearance (clear/precip.) 14 days [5, 19]: clear
- Conc. 14 days [5, 19]: 1.012, mg/mL
- Appearance (clear/precip.) 0 hr [5, 20]: clear
- Conc. 0 hr [5, 20]: 1.077, mg/mL
- Appearance (clear/precip.) 1 Month [5, 20]: clear
- Conc. 1 Month [5, 20]: 0.962, mg/mL
- Appearance (clear/precip.) 14 days [5, 20]: clear
- Conc. 14 days [5, 20]: 1.027, mg/mL
- Appearance (clear/precip.) 0 hr [5, 21]: clear
- Conc. 0 hr [5, 21]: 1.123, mg/mL
- Appearance (clear/precip.) 1 Month [5, 21]: precip.
- Conc. 1 Month [5, 21]: 0.848, mg/mL
- Appearance (clear/precip.) 14 days [5, 21]: precip.
- Conc. 14 days [5, 21]: 0.976, mg/mL
- Appearance (clear/precip.) 0 hr [5, 22]: clear
- Conc. 0 hr [5, 22]: 1.123, mg/mL
- Appearance (clear/precip.) 1 Month [5, 22]: clear
- Conc. 1 Month [5, 22]: 0.993, mg/mL
- Appearance (clear/precip.) 14 days [5, 22]: clear
- Conc. 14 days [5, 22]: 1.056, mg/mL
- Appearance (clear/precip.) 0 hr [5, 23]: clear
- Conc. 0 hr [5, 23]: 1.123, mg/mL
- Appearance (clear/precip.) 1 Month [5, 23]: clear
- Conc. 1 Month [5, 23]: 0.984, mg/mL
- Appearance (clear/precip.) 14 days [5, 23]: clear
- Conc. 14 days [5, 23]: 1.054, mg/mL
